Data set [1] deals with HIV-1 heterodimer p66/51 reverse transcriptase (Human immunodeficiency virus type 1 group M subtype B, UniProt P04585). Briefly: HIV-1 reverse transcriptase extension assay, r(I)n.(dC)12-18 template-primer.
Procedure: Extension assays were performed using a r(I)n.(dC)12-18 homopolymer template-primer (Pharmacia, Piscataway, N.J.) and the HIV-1 heterodimer p66/51 reverse transcriptase (RT, Biotechnology General, Rehovat, Israel). The standard reaction mixture (100 μl) contained 100 mM Tris hydrochloride (pH 8.0), 50 mM KCl, 2 mM MgCl2, 0.05 units/ml r(I)n.(dC)12-18, 5 mM DTT, 100 μg/ml Bovine Serum Albumin, and 1 μM ^3H-dCTP (23 Ci/mmol). 3TCTP (0.001-50 μM) was the positive control. Compounds were incubated 1 hr at 37° C. in the reaction mixture with 1 unit HIV-1 RT. The reaction was stopped with the addition of an equal volume of cold 10% TCA/0.05% sodium pyrophosphate and incubated 30 minutes at 4° C. The precipitated nucleic acids were harvested onto fiberglass filter paper using a Packard manual harvester (Meriden, Conn.). The radiolabel uptake in counts per minute (cpm) was determined using a Packard 9600 Direct Beta counter.
Data set [2] concerns HIV-1 (strain LAV). The data set can be described thus: Anti-HIV-1 activity in PHA-stimulated human PBM cells (virus quantitated by reverse transcriptase assay, day 6). Format: cell-based. Particulars: HIV-1 in human PBM cells. As to the method: The ability of nucleosides to inhibit HIV can be measured by various experimental techniques. One technique, described in detail below, measures the inhibition of viral replication in phytohemagglutinin (PHA) stimulated human peripheral blood mononuclear (PBM) cells infected with HIV-1 (strain LAV). The amount of virus produced is determined by measuring the virus-coded reverse transcriptase enzyme. The amount of enzyme produced is proportional to the amount of virus produced.
(§1) Antiviral and cytotoxicity assays: Anti-HIV-1 activity of the compounds is determined in human peripheral blood mononuclear (PBM) cells as described previously (Schinazi, R. F.; McMillan, A.; Cannon, D.; Mathis, R.; Lloyd, R. M. Jr.; Peck, A.; Sommadossi, J.-P.; St. Clair, M.; Wilson, J.; Furman, P. A.; Painter, G.; Choi, W.-B.; Liotta, D. C. Antimicrob. Agents Chemother. 1992, 36, 2423; Schinazi, R. F.; Sommadossi, J.-P.; Saalmann, V.; Cannon, D.; Xie, M.-Y.; Hart, G.; Smith, G.; Hahn, E. Antimicrob. Agents Chemother. 1990, 34, 1061). Stock solutions (20-40 mM) of the compounds were prepared in sterile DMSO and then diluted to the desired concentration in complete medium. […] Cells are infected with the prototype HIV-1LAI at a multiplicity of infection of 0.01. Virus obtained from the cell supernatant are quantitated on day 6 after infection by a reverse transcriptase assay using poly(rA)n.oligo(dT)12-18 as template-primer. The DMSO present in the diluted solution (<0.1%) should have no effect on the virus yield. The toxicity of the compounds can be assessed in human PBM, CEM, and Vero cells. The antiviral EC50 and cytotoxicity IC50 is obtained from the concentration-response curve using the median effective method described by Chou and Talalay (Adv. Enzyme Regul. 1984, 22, 27).
Three-day-old phytohemagglutinin-stimulated PBM cells 10^6 cells/ml) from hepatitis B and HIV-1 seronegative healthy donors are infected with HIV-1 (strain LAV) at a concentration of about 100 times the 50% tissue culture infectious dose (TICD 50) per ml and cultured in the presence and absence of various concentrations of antiviral compounds.
Approximately one hour after infection, the medium, with the compound to be tested (2 times the final concentration in medium) or without compound, is added to the flasks (5 ml; final volume 10 ml).
The cells are exposed to the virus (about 2×10^5 dpm/ml, as determined by reverse transcriptase assay) and then placed in a CO2 incubator. HIV-1 (strain LAV) is obtained from the Center for Disease Control, Atlanta, Ga. The methods used for culturing the PBM cells, harvesting the virus and determining the reverse transcriptase activity are those described by McDougal et al. (J. Immun. Meth. 76, 171-183, 1985) and Spiral et al. (J. Clin. Meth. 25, 97-99, 1987), except that flngizone was not included in the medium (see Schinazi, et al., Antimicrob. Agents Chemother. 32, 1784-1787 (1988); Id., 34:1061-1067 (1990)).
On day 6, the cells and supernatant are transferred to a 15 ml tube and centrifuged at about 900 g for 10 minutes. Five ml of supernatant are removed and the virus concentrated by centrifugation at 40,000 rpm for 30 minutes (Beckman 70.1 Ti rotor). The solubilized virus pellet is processed for determination of the levels of reverse transcriptase. Results are expressed in dpm/ml of sampled supernatant. Virus from smaller volumes of supernatant (1 ml) can also be concentrated by centrifugation prior to solubilization and determination of reverse transcriptase levels.

Data set [3] can be described thus: Cytotoxicity in Vero cells. Format: cell-based. Particulars: African green monkey, Vero cells. As to the method:
as §1, with “[…].;” for “R. F.; McMillan, A.;”, “[…].;” for “A.; Sommadossi, J.-P.;”, “[…].” for “W.-B.; Liotta, D. C.”, “[…].;” for “R. F.; Sommadossi, J.-P.; Saalmann, V.;”, “[…].;” for “M.-Y.; Hart, G.;”

Data set [4] is described as follows: Cytotoxicity in uninfected human PBM cells. Format: cell-based. Particulars: human, mitogen-stimulated uninfected human PBM cells; PMC Cells. As to the method: (§2) Antiviral and cytotoxicity assays: Anti-HIV-1 activity of the compounds is determined in human peripheral blood mononuclear (PBM) cells as described previously (Schinazi, […].; Cannon, D.; Mathis, R.; Lloyd, R. M. Jr.; Peck, […].; St. Clair, M.; Wilson, J.; Furman, P. A.; Painter, G.; Choi, […]. Antimicrob. Agents Chemother. 1992, 36, 2423; Schinazi, […].; Cannon, D.; Xie, […].; Smith, G.; Hahn, E. Antimicrob. Agents Chemother. 1990, 34, 1061). Stock solutions (20-40 mM) of the compounds were prepared in sterile DMSO and then diluted to the desired concentration in complete medium. […] Cells are infected with the prototype HIV-1LAI at a multiplicity of infection of 0.01. Virus obtained from the cell supernatant are quantitated on day 6 after infection by a reverse transcriptase assay using poly(rA)n.oligo(dT)12-18 as template-primer. […] The toxicity of the compounds can be assessed in human PBM, CEM, and Vero cells. The antiviral EC50 and cytotoxicity IC50 is obtained from the concentration-response curve using the median effective method described by Chou and Talalay (Adv. Enzyme Regul. 1984, 22, 27). Mitogen stimulated uninfected human PBM cells (3.8×10^5 cells/ml) can be cultured in the presence and absence of drug under similar conditions as those used for the antiviral assay described above. The cells are counted after 6 days using a hemacytometer and the trypan blue exclusion method, as described by Schinazi et al., Antimicrobial Agents and Chemotherapy, 22(3), 499 (1982).

For data set [5], the system named is CEM cells. The data set can be described thus: Cytotoxicity in CEM cells. Format: cell-based, human. How it is done: as §1
The extent of anticancer activity can be easily assessed by assaying the compound according to the procedure below in a CEM cell or other tumor cell line assay. CEM cells are human lymphoma cells (a T-lymphoblastoid cell line that can be obtained from ATCC, Rockville, Md.). […] The toxicity is measured as IC50 micromolar). […] Drug solutions, including cycloheximide as a positive control, are plated in triplicate in 50 μl growth medium at 2 times the final concentration and allowed to equilibrate at 37° C. in a 5% CO2 incubator. Log phase cells are added in 50 μl growth medium to a final concentration of 2.5×10^3 (CEM and SK-MEL-28), 5×10^3 (MMAN, MDA-MB-435s, SKMES-1, DU-145, LNCap), or 1×10^4 (PC-3, MCF-7) cells/well and incubated for 3 (DU-145, PC-3, MMAN), 4 (MCF-7, SK-MEL-28, CEM), or 5 (SK-MES-1, MDA-MB-435s, LNCaP) days at 37° C. under a 5% CO2 air atmosphere. Control wells include media alone (blank) and cells plus media without drug. After growth period, 15 μl of Cell Titer 96 kit assay dye solution (Promega, Madison, Wis.) are added to each well and the plates are incubated 8 hr at 37° C. in a 5% CO2 incubator. Promega Cell Titer 96 kit assay stop solution is added to each well and incubated 4-8 hr in the incubator. Absorbance is read at 570 nm, blanking on the medium-only wells using a Biotek Biokinetics plate reader (Biotek, Winooski, Vt.). Average percent inhibition of growth compared to the untreated control is calculated. IC50, IC90, slope and r value are calculated by the method of Chou and Talalay. Chou T-C, Talalay P. Quantitative analysis of dose-effect relationships: The combined effects of multiple drugs or enzyme inhibitors. Adv Enzyme Regul 1984, 22:27-55.

The test system of data set [6] is Vero cells. The data set can be described thus: Cytotoxicity in Vero cells. Format: cell-based. How it is done: as §1, with “[…].;” for “R. F.; McMillan, A.;”, “[…].;” for “A.; Sommadossi, J.-P.;”, “[…].” for “W.-B.; Liotta, D. C.”, “[…].;” for “R. F.; Sommadossi, J.-P.; Saalmann, V.;”, “[…].;” for “M.-Y.; Hart, G.;”
Data set [7] concerns PBM cells. Briefly: Cytotoxicity in uninfected human PBM cells. Format: cell-based. How it is done:
as §2

[8] abbreviates: Human immunodeficiency virus 1, PBMC.

Counter-ions that a name gives are not always drawn. A value given as a limit tells only on which side of the number the result lay.

By EC50 is commonly meant the concentration giving half of the maximal effect. A higher EC50 goes with a need for much substance. In general, EC90 refers to the concentration at which the effect reaches the 90% level. Read a high EC90 as a need for much substance. What is called IC50 is the concentration at which inhibition is half-maximal. Lower therefore signals higher potency.

Molecule `Nc1nc(=O)n(C2C=CC(COP(=O)(O)OP(=O)(O)OP(=O)(O)O)C2)cc1F` (mixture of isomers) [(±)-carbocyclic-D4FC-TP, cis-(±)-Carbocyclic 2′,3′-didehydro-2′,3′-dideoxy-5-fluorocytidine 5′-triphosphate, triethylhydrogenammonium salt] gave an EC50 in data set [1] of 0.4 µM.

In data set [2] (setting [8]), `Cc1cn([C@H]2C[C@H](N=[N+]=[N-])[C@@H](CO)O2)c(=O)[nH]c1=O` [AZT, 3′-azido-3′-deoxythymidine, reference compound] gave an EC50 of 0.004 µM and an EC90 of 0.04 µM. In data set [3], this molecule had an IC50 of 29 µM. Moreover, the IC50 at 6 days in data set [4] is over 100 µM.

With `O=c1ccn([C@H]2O[C@@H](CO)C=C2F)c(=O)[nH]1` [Compound 316, 1-(2,3-Dideoxy-2-fluoro-(α,β)-L-gycero-pent-2-eno-furanosyl)uracil], the IC50 in data set [5], in data set [6] and in data set [7] was over 100 µM throughout. Further, the EC50 in data set [2] was over 100 µM. The EC90 in data set [2] was over 100 µM.

Take `Cc1cn([C@H]2O[C@@H](CO)C=C2F)c(=O)[nH]c1=O` [Compound 318, 1-(2,3-Dideoxy-2-fluoro-(α,β)-L-gycero-pent-2-eno-furanosyl)thymine]: the IC50 in data set [5], in data set [6] and in data set [7] was over 100 µM in each case. For the same molecule, in data set [2], the EC50 was over 100 µM. In addition, the EC90 in data set [2] is over 100 µM.

`Nc1ccn([C@H]2O[C@@H](CO)C=C2F)c(=O)n1` [Compound 322, 1-(2,3-dideoxy-2-fluoro-β-L-gycero-pent-2-enofuranosyl)cytosine]: the IC50 in data set [5], in data set [6] and in data set [7] was over 100 µM in each case. Moreover, the EC50 in data set [2] was found to be 0.51 µM. In data set [2], this molecule gave an EC90 of 4.3 µM.

On to `Nc1ccn([C@@H]2O[C@@H](CO)C=C2F)c(=O)n1` [Compound 323, 1-(2,3-dideoxy-2-fluoro-α-L-gycero-pent-2-enofuranosyl)cytosine], for which the IC50 in data set [5], in data set [6] and in data set [7] was over 100 µM each time. The molecule further showed an EC50 in data set [2] of over 100 µM. The same molecule had an EC90 in data set [2] of over 100 µM.

On to `Nc1ncnc2c1ncn2[C@H]1O[C@@H](CO)C=C1F` [Compound 335, 9-(2,3-dideoxy-2-fluoro-β-L-gycero-pent-2-enofuranosyl)adenine], for which the IC50 in data set [5], in data set [6] and in data set [7] was over 100 µM throughout. This molecule came in with an EC50 in data set [2] of 1.5 µM. In addition, in data set [2], it took 15.1 µM to reach the 90% level (EC90).

Take `Nc1ncnc2c1ncn2[C@@H]1O[C@@H](CO)C=C1F` [Compound 336, 9-(2,3-dideoxy-2-fluoro-α-L-gycero-pent-2-enofuranosyl)adenine]: the IC50 in data set [5], in data set [6] and in data set [7] was over 100 µM each time. This molecule had a half-maximal effective concentration (EC50) in data set [2] of 47.6 µM. In data set [2], this molecule gave an EC90 of 332 µM.

On to `O=c1[nH]cnc2c1ncn2[C@H]1O[C@@H](CO)C=C1F` [Compound 337, 9-(2,3-dideoxy-2-fluoro-β-L-gycero-pent-2-enofuranosyl)hypoxanthine], for which the concentration for half-maximal inhibition (IC50) in data set [5], in data set [6] and in data set [7] was over 100 µM in each case. Besides, in data set [2], the EC50 is over 100 µM. This molecule yielded an EC90 in data set [2] of over 100 µM.

In data set [5], `O=c1[nH]cnc2c1ncn2[C@@H]1O[C@@H](CO)C=C1F` [Compound 338, 9-(2,3-dideoxy-2-fluoro-α-L-gycero-pent-2-enofuranosyl)hypoxanthine] registered an IC50 of over 100 µM. Besides, in data set [2], the EC50 was over 100 µM and the concentration for an effect of 90% (EC90) is over 100 µM. The IC50 in data set [7] was over 100 µM.

(Values after patent publication US6348587B1, “2′-Fluoronucleosides” (Emory University, priority 1998, dated 2002).)
